Experimental data published in PubChem BioAssay (NCI).
Where “and” joins values, the source holds several entries; their conditions need not be identical. Equal entries are not always repeated.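 Briefly, cells in 96-well plates were exposed to five compound concentrations for 48 h, and endpoints were estimated by linear interpolation. At the GI50, growth is halved. TGI is the concentration that stops growth completely.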

Key:
Experiment in all cases: NCI-60 cell line screen, 48 h
OVCAR-3 ovarian = tested on: OVCAR-3 ovarian
NCI-H460 lung = tested on: NCI-H460 lung
RXF 393 renal = tested on: RXF 393 renal
PC-3 prostate = tested on: PC-3 prostate
UACC-62 melanoma = tested on: UACC-62 melanoma
MDA-MB-231 breast = tested on: MDA-MB-231 breast
HOP-62 NSCLC = tested on: HOP-62 NSCLC
SK-MEL-28 melanoma = tested on: SK-MEL-28 melanoma
SF-268 CNS = tested on: SF-268 CNS
NCI-H226 lung = tested on: NCI-H226 lung

| Structure (SMILES) | TGI (OVCAR-3 ovarian) [µM] | TGI (NCI-H460 lung) [µM] | TGI (RXF 393 renal) [µM] | TGI (PC-3 prostate) [µM] | TGI (UACC-62 melanoma) [µM] | TGI (MDA-MB-231 breast) [µM] | TGI (HOP-62 NSCLC) [µM] | TGI (SK-MEL-28 melanoma) [µM] | TGI (SF-268 CNS) [µM] | TGI (NCI-H226 lung) [µM] | GI50 (OVCAR-3 ovarian) [µM] | GI50 (NCI-H460 lung) [µM] | GI50 (PC-3 prostate) [µM] | GI50 (NCI-H226 lung) [µM] | GI50 (HOP-62 NSCLC) [µM] | GI50 (SK-MEL-28 melanoma) [µM] | GI50 (SF-268 CNS) [µM] | GI50 (MDA-MB-231 breast) |
| --- | --- | --- | --- | --- | --- | --- | --- | --- | --- | --- | --- | --- | --- | --- | --- | --- | --- | --- |
| Cc1ccc(N=Nc2c(C)c(C#N)c(=S)n(C3OC(CO)C(O)C(O)C3O)c2-c2ccccc2)cc1 (stereo unspecified) | 41 | > 100 | 50.6 | 55.6 | 32 | > 100 | 54.2 | 43 | 68 |  |  |  |  |  |  |  |  |  |
| COc1c2cc(C(C)(C)C)cc1Cc1cccc(c1O)Cc1cc(C(C)(C)C)cc(c1OC)Cc1cccc(c1O)Cc1cc(C(C)(C)C)cc(c1OC)Cc1cccc(c1O)C2 | > 100 | > 100 | > 100 | > 100 | > 100 | > 100 | > 100 | > 100 | > 100 |  |  |  |  |  |  |  |  |  |
| c1ccc2c(Cc3nnc4sc(SSc5nn6c(Cc7c[nH]c8ccccc78)nnc6s5)nn34)c[nH]c2c1 | 29.2 | 89.3 | 50.9 | > 100 | 33.7 |  | 30.2 | > 100 | 67.2 |  |  |  |  |  |  |  |  |  |
| COC(=O)C1(Cc2ccccc2)Cc2ccccc2C1 |  | 84.9 |  | > 100 | 75.6 | > 100 | > 100 | > 100 | > 100 | 78.3 |  |  |  |  |  |  |  |  |
| Cc1ccc(-c2n[nH]c(=O)[nH]2)cc1[N+](=O)[O-] | > 100 | > 100 | > 100 | > 100 | > 100 |  | > 100 | > 100 | > 100 | > 100 |  |  |  |  |  |  |  |  |
| NNC(=S)N1CCN(C(=S)NN)CC1 | > 100 | > 100 |  | > 100 | > 100 | > 100 | > 100 | > 100 | > 100 |  |  |  |  |  |  |  |  |  |
| O=C(NCCCNCCNC(=O)c1cc(-c2ccccc2)nc2ccccc12)c1cc(-c2ccccc2)nc2ccccc12 | 3.6 | 3.31 |  | 3.09 |  | 3.52 | 3.06 | 3.26 |  | 5.05 |  |  |  |  |  |  |  |  |
| COc1cc(S(=O)(=O)Nc2ccc(C3=NNC(c4ccccc4)C3)cc2)ccc1F (stereo unspecified) | > 100 | > 100 |  | > 100 | 45.2 |  | 80.4 | > 100 | > 100 | 61.3 | 50.3 | 32.3 | 29.8 | 21.2 | 22.7 | > 100 | 65.1 |  |
| CN(C)CCCOCCn1c2c(c3ccccc31)CCCC2 | 53.1 | 28.9 |  | 32.6 | 31.1 | 26.6 | 28.3 | 30.2 | > 100 | 63.5 |  |  |  |  |  |  |  |  |
| O=C(N[C@H]1c2ccsc2/C(=N/O)[C@H]1O)C(F)(F)F | > 100 | > 100 | > 100 | > 100 | > 100 |  | > 100 | > 100 | > 100 | > 100 |  |  |  |  |  |  |  |  |
| NCCCCNCCCNC(=O)c1nc(-c2csc(CCN)n2)sc1Cl | > 100 | > 100 | > 100 |  | > 100 |  | > 100 | > 100 | > 100 | > 100 |  |  |  |  |  |  |  |  |
| CC(C)N(C)C(=O)C12C3C4C1C1C2C3C41C#N (stereo unspecified) | > 100 | > 100 | > 100 | > 100 | > 100 | > 100 | > 100 | > 100 | > 100 |  |  |  |  |  |  |  |  |  |
| C#CCn1c(=O)c(C#N)c(O)c2cc3ccccc3nc21 | > 100 | > 100 | > 100 |  | > 100 |  | > 100 | > 100 | > 31.6 | > 100 |  |  |  |  |  |  |  |  |
| C[N+](C)(C)c1ncnc2c1ncn2C1CCCCO1 (stereo unspecified) | > 100 | > 100 | > 100 | > 100 | > 100 | > 100 | > 100 | > 100 | > 100 |  |  |  |  |  |  |  |  |  |
| CSC1=NS(=O)(=O)c2cc(C(=O)NN(C)C(=O)c3cc4c(cc3Cl)SC(SC)=NS4(=O)=O)c(Cl)cc2S1 | > 10 | > 10 | > 10 | > 10 |  |  | > 10 | > 10 | > 10 | > 10 |  |  |  |  |  |  |  |  |
| CC(=O)N1CCN(C23OC4(N5CCN(C(C)=O)CC5)C5C6CC(C7C6C4C72)C53)CC1 (stereo unspecified) | > 100 | > 100 | > 100 | > 100 | > 100 | > 100 | > 100 |  | > 100 | > 100 |  |  |  |  |  |  |  |  |
| COc1ccccc1Nc1nc(NNC(=O)Cc2ccccc2)nc(NNC(=O)c2ccncc2)n1 |  | > 10 |  |  | > 10 | > 10 | > 10 | > 10 | > 10 |  |  |  |  |  |  |  |  |  |
| CCOc1cc(C2CC(c3ccc(NS(=O)(=O)c4cc([N+](=O)[O-])ccc4C)cc3)=NN2)ccc1O (stereo unspecified) | 37.3 |  | 40.4 | > 100 | 30.3 | 89.2 |  | > 100 | > 100 | > 100 |  |  |  |  |  |  |  |  |
| COc1cc(C2S/C(=C/c3ccccc3)C(=O)N2c2ccc(Cl)c(Cl)c2)cc(OC)c1OC (stereo unspecified) | > 100 | > 100 | > 100 | > 100 |  | > 100 | > 100 | > 100 | > 100 | > 100 |  |  |  |  |  |  |  |  |
| Clc1ccc(N=c2oc3ccccc3cc2-c2nc3ccccc3[nH]2)c(Cl)c1 | > 100 |  | 41.7 | > 100 | > 100 |  | 65.1 |  | 89.1 |  |  |  |  |  |  |  |  |  |
| O=c1[nH]c(N/N=C\C(O)C(O)C(O)CO)nc2ccccc12 (stereo unspecified) | > 100 | > 100 |  | > 100 | > 100 | > 100 | > 100 | > 100 | > 100 | > 100 |  |  |  |  |  |  |  | > 100 µM and 47.7 µM |
| CCc1ccc2c(c1)CC1(C2)Cc2cc3c(cc2C1)C(=O)CC3 (stereo unspecified) | 42.8 |  | > 100 | 64.1 | > 100 | 87.7 | 78.5 |  |  | 67 |  |  |  |  |  |  |  |  |
| CCOC(=O)C(CS)NC(=O)CCCCCCCC(=O)NC(CS)C(=O)OCC (stereo unspecified) | > 100 | > 100 |  | > 100 | > 100 | > 100 | > 100 | > 100 |  | > 100 |  |  |  |  |  |  |  |  |
